Data reported in patent US11160787B2, “4-(4-chlorophenyl)-5-methylene-pyrrol-2-one and 5-methylene-4-(p-tolyl)pyrrol-2-one for use in the treatment of gram negative bacterial infections” (priority 2016, dated 2021).
“Also recorded” adds a separate entry of the source.

Tests used:
PqsR [1] = target: T1, PqsR (Pseudomonas aeruginosa, UniProt Q9I4X0); conditions: read-out: EC50 of PQS for pqsA::lux expression; PAO1-L ΔpqsA pqsA::lux, without lactam; cited from earlier work
T1 construct: By using the AQ-non producing P. aeruginosa strain PAO1-L ΔpqsA, pqsA::lux; endogenous in cells; host or cells: P. aeruginosa PAO1-L ΔpqsA, pqsA::lux
T1 sequence (Q9I4X0 whole entry): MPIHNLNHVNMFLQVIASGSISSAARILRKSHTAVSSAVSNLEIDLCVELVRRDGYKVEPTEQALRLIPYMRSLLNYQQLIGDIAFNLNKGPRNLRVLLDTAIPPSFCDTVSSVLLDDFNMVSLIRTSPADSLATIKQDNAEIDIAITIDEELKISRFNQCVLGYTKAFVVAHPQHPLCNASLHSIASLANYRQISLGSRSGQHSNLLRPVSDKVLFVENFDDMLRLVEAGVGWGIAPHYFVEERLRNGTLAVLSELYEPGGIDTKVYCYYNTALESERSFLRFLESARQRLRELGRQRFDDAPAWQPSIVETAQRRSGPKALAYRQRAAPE

[2] = system: P. aeruginosa PAO1 pqsA::lux; assay: pqsA::lux promoter fusion expression in P. aeruginosa PAO1-L biosensor (AQ-dependent quorum sensing); assay type: cell-based, Pseudomonas aeruginosa; conditions: for extent of inhibition of light output / pqsA expression at high concentrations: PAO1-L pqsA::lux; for IC50: Pseudomonas aeruginosa, PAO1, read-out: IC50 for inhibition of pqsA::lux expression
Experimental: The expression of rhl and las AHL- and the pqsA AQ-synthase genes was evaluated using lux-based lasl (FIG. 1), rhll (FIG. 2) and pqsA (FIG. 3) chromosomally integrated promoter fusions. Luminescence was quantified as a function of bacterial growth. The applicant further determined that none of the lactams is growth inhibitory at 100 μM using a large number of strains (figure not shown).
To determine the relative inhibitory activities (IC50s) of 4-(4-chlorophenyl)-5-methylene-pyrrol-2-one (Ref. 488) and 5-methylene-4-(p-tolyl)pyrrol-2-one (Ref. 491), dose response curves were constructed using the same biosensor strain (P. aeruginosa PAO1 pqsA::lux; Fletcher et al, 2007; Ilangovan et al 2013). This strain produces light in response to the endogenous production of AQs such as PQS and HHQ.

PqsABCD = assay: HHQ production by PAO1-N ΔpqsAHR pBBR-pqsABCD, TLC with AQ biosensor overlay; assay type: cell-based, Pseudomonas aeruginosa; conditions: 488 200 μM, overnight in LB, FIG. 13
Text: To determine whether 4-(4-chlorophenyl)-5-methylene-pyrrol-2-one (Ref. 488) is capable of inhibiting the enzymes (PqsABCD) involved in AQ biosynthesis, the P. aeruginosa PAO1-N ΔpqsAHR was exploited. This mutant cannot produce AQs because the genes coding for the key biosynthetic enzymes (PqsA and PqsH) and regulation (PqsR) have been deleted. To restore AQ production in a PqsR-independent manner in PAO1-N ΔpqsA, the pqsABCD genes were introduced on a plasmid (pBBR pqsABCD; Niewerth et al. 2011). P. aeruginosa PAO1-N ΔpqsAHR and P. aeruginosa PAO1-N ΔpqsAHR pBBR pqsABCD were both incubated overnight in LB with and without 4-(4-chlorophenyl)-5-methylene-pyrrol-2-one (Ref. 488) (200 μM), resuspended to an OD600 1.0. The cultures were extracted with acidified ethyl acetate, the organic phase removed, dried and resuspended in methanol subjected to thin layer chromatography (TLC).
After chromatography using a dichloromethane-methanol mobile phase, the TLC plates were overlaid with a thin agar layer containing the AQ biosensor strain PAO1-L ΔpqsA CTX::pqsA′-luxCDABE (Fletcher et al. 2007) incubated and examined for reporter output (FIG. 13). […] The biosensor strain produces light (FIG. 13 panel C) and pyocyanin (FIG. 13 panel B) in response to AQs that bind to PqsR and activate the pqsA promoter.

[3] = system: P. aeruginosa strain PAO1-L; assay: Pyocyanin production by PAO1-L, visually assessed; assay type: cell-based, Pseudomonas aeruginosa; conditions: 100 μM (vial 2), 8 h at 37° C., FIG. 5
Text: Pyocyanin is a blue redox-active secondary metabolite and a putative signalling molecule in P. aeruginosa (Jayaseelan et al, 2014). The pyocyanin biosynthetic (phz) genes are regulated by QS and in part via the transcriptional regulator PqsR acting through PqsE (Rampioni et al 2011).
Although qualitative, this observation offers further confirmation of the inhibitory effects of lactam 4-(4-chlorophenyl)-5-methylene-pyrrol-2-one (Ref. 488) on AQ-dependent QS.

PqsR [4] = target: T1, PqsR; assay: PQS-dependent expression of pqsA::lux in AQ-non producing PAO1-L ΔpqsA (PqsR antagonism); assay type: cell-based
Experimental: By using the AQ-non producing P. aeruginosa strain PAO1-L ΔpqsA, pqsA::lux, the EC50 value for the native PqsR agonist, PQS was calculated as ˜2 μM (Ilangovan et al. 2013).
The experiment shown in FIG. 8 was then repeated using 4-(4-chlorophenyl)-5-methylene-pyrrol-2-one (Ref. 488) concentrations of 0, 50, 100 and 200 μM.
A partial agonist is a molecule that can bind to and activate a receptor resulting in a non-complete response compared with a full agonist. […] This contrasts with its activity as an antagonist in the presence of 10 or 40 μM PQS.

[5] = system: PAO1-N ΔpqsAHR pqsA'::lux; assay: PqsR-independent expression of pqsA'::lux in PAO1-N ΔpqsAHR; assay type: cell-based, Pseudomonas aeruginosa; conditions: presence or absence of 40 μM PQS, FIG. 11
Text: PQS is capable of weakly activating pqsA in the absence of PqsR via a mechanism that is not fully understood but appears to depend on the iron chelating properties of PQS. The aim of this experiment was to clarify whether lactam 4-(4-chlorophenyl)-5-methylene-pyrrol-2-one (Ref. 488) is also inhibitory for pqsA expression via the PqsR independent pathway. As previously described, the pqsA′::lux biosensor based on the triple mutant PAO1-N ΔpqsAHR cannot produce AQs and lacks pqsR but still responds to exogenous PQS. This response is however much weaker that the PqsR-dependent response.

| Structure (SMILES) | EC50 (PqsR [1]) [µM] | extent of inhibition of light output / pqsA expression at high concentrations [2] | IC50 [2] [µM] | effect on HHQ biosynthesis (PqsABCD) | pyocyanin production in culture supernatant [3] | mode of antagonism of PQS-dependent pqsA::lux expression (PqsR [4]; 488 at 0, 50, 100 and 200 μM, FIG. 9) | restoration of light output by PQS in the presence of 488 (PqsR [4]; 488 at 50, 100, 200 μM, PAO1-L ΔpqsA, FIG. 9) | partial agonist activity (activation of pqsA expression) (PqsR [4]; PAO1-L ΔpqsA pqsA'::lux, concentrations up to 800 μM, FIG. 10) | fold increase of PQS EC50 caused by the lactam (PqsR [4]; fixed concentration of 488 (215 μM), range of PQS concentrations) [fold] | relative inhibition of PqsR-dependent pqsA::lux promoter fusion in screening ([2]; lactams at 100 μM, FIG. 3) | effect on PqsR-independent expression of pqsA [5] |
| --- | --- | --- | --- | --- | --- | --- | --- | --- | --- | --- | --- |
| CCCCCCCc1[nH]c2ccccc2c(=O)c1O [PQS, 2-heptyl-3-hydroxy-4-(1H)-quinolone] | ~2 |  |  |  |  |  |  |  |  |  |  |
| C=C1NC(=O)C=C1c1ccc(C)cc1 [Ref. 491, 5-methylene-4-(p-tolyl)pyrrol-2-one] |  | did not inhibit pqsA expression as strongly; also recorded: did not give complete knock out at higher concentration | 44 |  |  |  |  |  |  |  |  |
| C=C1NC(=O)C=C1c1ccc(Cl)cc1 [Ref. 488, 4-(4-chlorophenyl)-5-methylene-pyrrol-2-one] |  | completely inhibited light output; also recorded: fully knock out the PQS | 22 | did not inhibit HHQ biosynthesis | absence of green pigmentation | competitive antagonist | fully restoring light output in the presence of 50 μM but not 100 μM or 200 μM | no partial agonist activity | ~15 | most potent inhibitor | small inhibitory effect |
